Active and inactive are the calls of the source. No cut-off for these calls is given here.
What was measured:
[1] = test system: 4T1; assay: Anticancer activity against mouse 4T1 cells assessed as inhibition of cell growth incubated for 24 hrs by CCK-8 assay; assay type: functional, cell-based; conditions: 4T1, 24 h
[2] = test system: 4T1; assay: Anticancer activity against mouse 4T1 cells assessed as inhibition of cell growth incubated for 48 hrs by CCK-8 assay; assay type: functional, cell-based; conditions: 4T1, 48 h
[3] = test system: 4T1; assay: Anticancer activity against mouse 4T1 cells assessed as inhibition of cell growth incubated for 72 hrs by CCK-8 assay; assay type: functional, cell-based; conditions: 4T1, 72 h
[4] = Prodrug conversion in cell culture medium containing 10% FBS assessed as drug hydrolysis by measuring stachydrine release at 3 to 20 hrs; assay type: ADME; conditions: cattle; time 3-20 hrs
[5] = Prodrug conversion in carboxylesterase (unknown origin) solution assessed as drug hydrolysis by measuring stachydrine release at 3 to 20 hrs; assay type: ADME, Homo sapiens; conditions: time 3-20 hrs
[6] = test system: 4T1; assay: Induction of apoptosis in mouse 4T1 cells assessed as apoptotic rate at 0.3 micromol/L incubated for 24 hrs by Annexin-V/PI staining based flow cytometry relative to control; assay type: functional; conditions: dose 0.3 µmol/L, at 0.3 µM
[7] = Prodrug conversion in serum (unknown origin) assessed as drug hydrolysis by measuring stachydrine release at 3 to 20 hrs; assay type: ADME, cell-free; conditions: time 3-20 hrs
[8] = test system: 4T1; assay: Induction of apoptosis in mouse 4T1 cells assessed as apoptotic rate at 0.04 micromol/L incubated for 24 hrs by Annexin-V/PI staining based flow cytometry relative to control; assay type: functional; conditions: dose 0.04 µmol/L, at 0.04 µM
[9] = test system: 4T1; assay: Induction of apoptosis in mouse 4T1 cells assessed as apoptotic rate at 2 micromol/L incubated for 24 hrs by Annexin-V/PI staining based flow cytometry relative to control; assay type: functional; conditions: dose 2 µmol/L, at 2 µM
[10] = test system: 4T1; assay: Induction of apoptosis in mouse 4T1 cells assessed as apoptotic rate at 4000 micromol/L incubated for 24 hrs by Annexin-V/PI staining based flow cytometry relative to control; assay type: functional; conditions: dose 4000 µmol/L, at 4000 µM
[11] = Toxicity in BALB/c mouse implanted with mouse 4T1 cells assessed as splenic edema at 0.2 mmol/Kg, po administered once every day for 14 days; assay type: organism-based; conditions: in vivo, 336 h, time 14 day
[12] = Toxicity in BALB/c mouse implanted with mouse 4T1 cells assessed as effect on CREA level at 0.2 mmol/Kg, po administered once every day for 14 days by routine blood analysis; assay type: organism-based; conditions: in vivo, 336 h, time 14 day
[13] = Toxicity in BALB/c mouse implanted with mouse 4T1 cells assessed as increase in splenic red pulp at 0.2 mmol/Kg, po administered once every day for 14 days; assay type: organism-based; conditions: in vivo, 336 h, time 14 day
[14] = Toxicity in BALB/c mouse implanted with mouse 4T1 cells assessed as increase in neutrophil granulocytes at 0.2 mmol/Kg, po administered once every day for 14 days by routine blood analysis; assay type: organism-based; conditions: in vivo, 336 h, time 14 day
[15] = Toxicity in BALB/c mouse implanted with mouse 4T1 cells assessed as increase in lymphocytes at 0.2 mmol/Kg, po administered once every day for 14 days by routine blood analysis; assay type: organism-based; conditions: in vivo, 336 h, time 14 day
[16] = Toxicity in BALB/c mouse implanted with mouse 4T1 cells assessed as increase in mean platelet volume at 0.2 mmol/Kg, po administered once every day for 14 days by routine blood analysis; assay type: organism-based; conditions: in vivo, 336 h, time 14 day
[17] = Toxicity in BALB/c mouse implanted with mouse 4T1 cells assessed as effect on BUN level at 0.2 mmol/Kg, po administered once every day for 14 days by routine blood analysis; assay type: organism-based; conditions: in vivo, 336 h, time 14 day
[18] = test system: 4T1; assay: Induction of apoptosis in mouse 4T1 cells assessed as apoptotic rate at 1000 micromol/L incubated for 24 hrs by Annexin-V/PI staining based flow cytometry relative to control; assay type: functional; conditions: dose 1000 µmol/L, at 1000 µM
[19] = test system: 4T1; assay: Antitumor activity against mouse 4T1 cells implanted in BALB/c mouse assessed as tumor cell necrosis at 0.2 mmol/Kg, po administered once every day for 14 days by histological staining based analysis; assay type: functional, organism-based; conditions: time 14.0 day
[20] = test system: 4T1; assay: Induction of mitochondrial membrane potential loss in mouse 4T1 cells assessed as green fluorescence at 4000 uM incubated for 24 hrs by JC-1 staining based flow cytometric analysis (reference value: 11.7%); assay type: cell-based
[21] = test system: 4T1; assay: Induction of apoptosis in mouse 4T1 cells assessed as apoptotic rate at 8000 micromol/L incubated for 24 hrs by Annexin-V/PI staining based flow cytometry relative to control; assay type: functional; conditions: dose 8000 µmol/L, at 8000 µM
[22] = test system: 4T1; assay: Induction of mitochondrial membrane potential loss in mouse 4T1 cells assessed as red fluorescence at 4000 uM incubated for 24 hrs by JC-1 staining based flow cytometric analysis (Rvb= 87.9%); assay type: cell-based
[23] = test system: 4T1; assay: Antitumor activity against mouse 4T1 cells implanted in BALB/c mouse assessed as tumor growth inhibition at 0.2 mmol/Kg, po administered once every day for 14 days relative to control; assay type: functional; conditions: 4T1, 336 h, time 14 day, read-out: TGI
[24] = Toxicity in BALB/c mouse implanted with mouse 4T1 cells assessed as increase in white blood cells at 0.2 mmol/Kg, po administered once every day for 14 days by routine blood analysis; assay type: organism-based; conditions: in vivo, 336 h, time 14 day
[25] = Toxicity in BALB/c mouse implanted with mouse 4T1 cells assessed as body weight loss at 0.2 mmol/Kg, po administered once daily for 14 days; assay type: organism-based; conditions: in vivo, 336 h, time 14 day
[26] = Toxicity in BALB/c mouse implanted with mouse 4T1 cells assessed as change in lung histopathology at 0.2 mmol/Kg, po administered once every day for 14 days; assay type: organism-based; conditions: in vivo, 336 h, time 14 day
[27] = Toxicity in BALB/c mouse implanted with mouse 4T1 cells assessed as change in liver histopathology at 0.2 mmol/Kg, po administered once every day for 14 days; assay type: organism-based; conditions: in vivo, 336 h, time 14 day
[28] = Toxicity in BALB/c mouse implanted with mouse 4T1 cells assessed as increase in monocytes at 0.2 mmol/Kg, po administered once every day for 14 days by routine blood analysis; assay type: organism-based; conditions: in vivo, 336 h, time 14 day
[29] = test system: 4T1; assay: Antitumor activity against mouse 4T1 cells implanted in BALB/c mouse assessed as change in tumor weight at 0.2 mmol/Kg, po administered once every day for 14 days; assay type: functional, organism-based; conditions: time 14.0 day
[30] = test system: 4T1; assay: Antitumor activity against mouse 4T1 cells implanted in BALB/c mouse assessed as tumor cell shrinkage at 0.2 mmol/Kg, po administered once every day for 14 days by histological staining based analysis; assay type: functional, organism-based; conditions: time 14.0 day
[31] = Toxicity in BALB/c mouse implanted with mouse 4T1 cells assessed as increase in AST level at 0.2 mmol/Kg, po administered once every day for 14 days by routine blood analysis; assay type: organism-based; conditions: in vivo, 336 h, time 14 day
[32] = Toxicity in BALB/c mouse implanted with mouse 4T1 cells assessed as change in heart histopathology at 0.2 mmol/Kg, po administered once every day for 14 days; assay type: organism-based; conditions: in vivo, 336 h, time 14 day
[33] = Toxicity in BALB/c mouse implanted with mouse 4T1 cells assessed as blurred spleen morphology at 0.2 mmol/Kg, po administered once every day for 14 days; assay type: organism-based; conditions: in vivo, 336 h, time 14 day
[34] = Toxicity in BALB/c mouse implanted with mouse 4T1 cells assessed as change in kidney histopathology at 0.2 mmol/Kg, po administered once every day for 14 days; assay type: organism-based; conditions: in vivo, 336 h, time 14 day
[35] = Toxicity in BALB/c mouse implanted with mouse 4T1 cells assessed as increase in ALT level at 0.2 mmol/Kg, po administered once every day for 14 days by routine blood analysis; assay type: organism-based; conditions: in vivo, 336 h, time 14 day
[36] = Toxicity in BALB/c mouse implanted with mouse 4T1 cells assessed as reduction in spleen index at 0.2 mmol/Kg, po administered once every day for 14 days relative to control; assay type: organism-based; conditions: in vivo, 336 h, time 14 day
[37] = test system: 4T1; assay: Induction of mitochondrial membrane potential loss in mouse 4T1 cells assessed as green fluorescence at 50 uM incubated for 24 hrs by JC-1 staining based flow cytometric analysis (reference value: 11.7%); assay type: cell-based
[38] = test system: 4T1; assay: Induction of mitochondrial membrane potential loss in mouse 4T1 cells assessed as red fluorescence at 50 uM incubated for 24 hrs by JC-1 staining based flow cytometric analysis (reference value: 87.9%); assay type: cell-based
[39] = test system: 4T1; assay: Inhibition of cell migration in mouse 4T1 cells assessed as reduction in wound healing incubated for 24 hrs by microscopic analysis; assay type: functional, cell-based
[40] = test system: 4T1; assay: Induction of apoptosis in mouse 4T1 cells assessed as apoptotic rate at 250 micromol/L incubated for 24 hrs by Annexin-V/PI staining based flow cytometry relative to control; assay type: functional; conditions: dose 250 µmol/L, at 250 µM
[41] = test system: 4T1; assay: Induction of mitochondrial membrane potential loss in mouse 4T1 cells assessed as green fluorescence at 250 uM incubated for 24 hrs by JC-1 staining based flow cytometric analysis (reference value: 11.7%); assay type: cell-based
[42] = test system: 4T1; assay: Induction of apoptosis in mouse 4T1 cells assessed as apoptotic rate at 50 micromol/L incubated for 24 hrs by Annexin-V/PI staining based flow cytometry relative to control; assay type: functional; conditions: dose 50 µmol/L, at 50 µM
[43] = test system: 4T1; assay: Induction of mitochondrial membrane potential loss in mouse 4T1 cells assessed as red fluorescence at 250 uM incubated for 24 hrs by JC-1 staining based flow cytometric analysis (Rvb= 87.9%); assay type: cell-based

SMILES: CCCCCCCCCCCCCCCCCCOC(=O)C1CCC[N+]1(C)C (stereo not drawn)
- IC50 [1]: 2.42 µM
- IC50 [2]: 2.73 µM
- IC50 [3]: 2.01 µM

SMILES: CCOC(=O)C1CCC[N+]1(C)C (stereo not drawn)
- IC50 [1]: 1710 µM
- IC50 [2]: 14000 µM
- IC50 [3]: 7890 µM

SMILES: CCCCCCCCCCOC(=O)C1CCC[N+]1(C)C (stereo not drawn)
- IC50 [1]: 204 µM
- IC50 [2]: 136 µM
- IC50 [3]: 98 µM

SMILES: CCCCCCCCCCCCCCOC(=O)C1CCC[N+]1(C)C (stereo not drawn)
- IC50 [1]: 165 µM
- IC50 [2]: 166 µM
- IC50 [3]: 57 µM

SMILES: CCCCCCCCCCCCCCCCOC(=O)C1CCC[N+]1(C)C.[Cl-] (stereo not drawn)
- Drug metabolism [4]: Metabolite_Detected
- IC50 [1]: 0.858 µM
- IC50 [2]: 0.701 µM
- Drug metabolism [5]: Metabolite_Detected
- Activity [6]: 62.1%
- Drug metabolism [7]: Metabolite_Detected
- Activity [8]: 52%
- Activity [9]: 72%
- IC50 [3]: 0.341 µM

SMILES: CCCCOC(=O)C1CCC[N+]1(C)C.[Cl-] (stereo not drawn)
- Activity [10]: 39.8%
- Drug metabolism [4]: Metabolite_Detected
- Activity [11]: Toxic
- Activity [12]: Non-Toxic
- Activity [13]: Toxic
- IC50 [1]: 6380 µM
- Activity [14]: Non-Toxic
- IC50 [2]: 6310 µM
- Drug metabolism [5]: Metabolite_Detected
- Activity [15]: Non-Toxic
- Activity [16]: Non-Toxic
- Activity [17]: Non-Toxic
- Activity [18]: 29.06%
- Activity [19]: Active
- Activity [20]: 38.9%
- Activity [21]: 51.28%
- Activity [22]: 60.9%
- inhibition in vivo at 200 µmol/kg [23]: 45.1%
- Activity [24]: Non-Toxic
- Activity [25]: Toxic
- Activity [26]: Non-Toxic
- Drug metabolism [7]: Metabolite_Detected
- Activity [27]: Non-Toxic
- Activity [28]: Non-Toxic
- Activity [29]: Active
- IC50 [3]: 5170 µM
- Activity [30]: Active
- Activity [31]: Toxic
- Activity [32]: Non-Toxic
- Activity [33]: Toxic
- Activity [34]: Non-Toxic
- Activity [35]: Toxic
- Activity [36]: Toxic

SMILES: CCCCCCOC(=O)C1CCC[N+]1(C)C (stereo not drawn)
- IC50 [1]: 2550 µM
- IC50 [2]: 1560 µM
- IC50 [3]: 1100 µM

SMILES: N#CC(C#N)=NNc1cccc(Cl)c1
- Activity [37]: 48.4%
- Activity [38]: 51.1%

SMILES: CCCCCCCCOC(=O)C1CCC[N+]1(C)C.[Cl-] (stereo not drawn)
- inhibition [39]: Dose-Dependent Effect
- Activity [40]: 69.9%
- Activity [41]: 53.5%
- Activity [42]: 36.82%
- Drug metabolism [4]: Metabolite_Detected
- Activity [11]: Toxic
- Activity [12]: Non-Toxic
- Activity [13]: Toxic
- IC50 [1]: 508 µM
- Activity [14]: Non-Toxic
- IC50 [2]: 249 µM
- Drug metabolism [5]: Metabolite_Detected
- Activity [15]: Non-Toxic
- Activity [16]: Non-Toxic
- Activity [43]: 46.5%
- Activity [17]: Non-Toxic
- Activity [18]: 80.8%
- Activity [19]: Active
- inhibition in vivo at 200 µmol/kg [23]: 51.5%
- Activity [24]: Non-Toxic
- Activity [25]: Toxic
- Activity [26]: Non-Toxic
- Drug metabolism [7]: Metabolite_Detected
- Activity [27]: Non-Toxic
- Activity [28]: Non-Toxic
- Activity [29]: Active
- IC50 [3]: 140 µM
- Activity [30]: Active
- Activity [31]: Toxic
- Activity [32]: Non-Toxic
- Activity [33]: Toxic
- Activity [34]: Non-Toxic
- Activity [35]: Toxic
- Activity [36]: Toxic
